Source: paper PMC12090182, “Repurposing of the RIPK1-Selective Benzo[1,4]oxazepin-4-one Scaffold for the Development of a Type III LIMK1/2 Inhibitor” (ACS Chemical Biology, 2025)

Columns and labels:
Assay type in all cases: cell-based
Conditions in all cases: HEK-293T; 1 μM inhibitor, HEK293T cells
AAK1 = AAK1 (Homo sapiens, UniProt Q2M2I8)
Summary of the method: (§1)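 Live-cell NanoBRET: HEK293T, 20 h expression, Tracer K10 (kit-recommended conc.), test compound 1 μM single point; luminescence 450/610 nm; % occupancy per kinase.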

ABL2 = ABL2 (Homo sapiens, UniProt P42684)
Summary of the method: as §1

AKT2 = AKT2 (Homo sapiens, UniProt P31751)
Chain of AKT2 (P31751 whole entry): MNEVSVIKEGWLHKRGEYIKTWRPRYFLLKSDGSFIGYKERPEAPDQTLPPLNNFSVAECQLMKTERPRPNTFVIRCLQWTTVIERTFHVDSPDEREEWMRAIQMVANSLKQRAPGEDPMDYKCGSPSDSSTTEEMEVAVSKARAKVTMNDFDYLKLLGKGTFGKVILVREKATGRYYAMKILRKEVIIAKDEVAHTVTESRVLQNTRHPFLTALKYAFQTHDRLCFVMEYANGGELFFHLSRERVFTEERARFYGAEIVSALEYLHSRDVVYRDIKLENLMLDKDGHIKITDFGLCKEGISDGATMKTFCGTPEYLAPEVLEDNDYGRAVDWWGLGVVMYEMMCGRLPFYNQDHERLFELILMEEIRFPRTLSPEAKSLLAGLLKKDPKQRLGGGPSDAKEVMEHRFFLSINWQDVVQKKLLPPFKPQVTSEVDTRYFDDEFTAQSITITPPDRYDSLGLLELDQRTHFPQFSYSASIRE
Summary of the method: as §1

BTK = biological target: T1, BTK (Homo sapiens, UniProt Q06187)
T1 construct: full-length LIMK1/2, RIPK1, BTK, and LRRK2 cloned in a frame in a NanoLuc-vector (Promega); host or cells: HEK293T
Summary of the method: as §1

CAMK2A = CAMK2A (Homo sapiens, UniProt Q9UQM7)
Chain of CAMK2A (Q9UQM7 whole entry): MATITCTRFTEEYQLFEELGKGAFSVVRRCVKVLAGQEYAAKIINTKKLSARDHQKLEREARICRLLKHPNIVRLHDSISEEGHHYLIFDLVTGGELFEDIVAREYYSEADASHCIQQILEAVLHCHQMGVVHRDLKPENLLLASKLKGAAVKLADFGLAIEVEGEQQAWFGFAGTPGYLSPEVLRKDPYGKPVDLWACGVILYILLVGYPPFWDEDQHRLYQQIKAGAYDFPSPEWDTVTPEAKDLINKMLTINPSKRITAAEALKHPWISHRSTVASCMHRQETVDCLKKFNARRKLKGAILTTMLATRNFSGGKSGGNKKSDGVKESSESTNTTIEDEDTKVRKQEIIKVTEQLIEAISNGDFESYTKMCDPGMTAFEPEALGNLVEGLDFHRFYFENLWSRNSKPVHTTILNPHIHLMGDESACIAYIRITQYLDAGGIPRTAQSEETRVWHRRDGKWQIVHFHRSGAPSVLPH
Summary of the method: as §1

CDK2 = CDK2 (Homo sapiens, UniProt P24941)
Summary of the method: as §1

CDK3 = CDK3 (Homo sapiens, UniProt Q00526)
Summary of the method: as §1

CDK6 = CDK6 (Homo sapiens, UniProt Q00534)
Summary of the method: as §1

CDKL1 = CDKL1 (Homo sapiens, UniProt Q00532)
Chain of CDKL1 (Q00532 whole entry): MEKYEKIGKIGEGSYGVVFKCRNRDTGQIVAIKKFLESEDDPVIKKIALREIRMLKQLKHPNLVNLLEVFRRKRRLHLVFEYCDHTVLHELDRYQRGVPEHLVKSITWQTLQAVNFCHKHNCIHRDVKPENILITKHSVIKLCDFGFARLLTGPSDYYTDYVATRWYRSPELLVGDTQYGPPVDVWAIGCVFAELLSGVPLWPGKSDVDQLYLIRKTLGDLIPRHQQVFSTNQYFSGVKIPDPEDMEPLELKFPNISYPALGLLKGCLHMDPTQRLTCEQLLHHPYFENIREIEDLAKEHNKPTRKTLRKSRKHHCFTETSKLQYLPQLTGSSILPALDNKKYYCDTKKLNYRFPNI
Summary of the method: as §1

CDKL5 = CDKL5 (Homo sapiens, UniProt O76039)
Summary of the method: as §1

CSNK2A2 = CSNK2A2 (Homo sapiens, UniProt P19784)
Summary of the method: as §1

ERN2 = ERN2 (Homo sapiens, UniProt Q76MJ5)
Summary of the method: as §1

FER = FER (Homo sapiens, UniProt P16591)
Summary of the method: as §1

FES = FES (Homo sapiens, UniProt P07332)
Summary of the method: as §1

FGFR4 = FGFR4 (Homo sapiens, UniProt P22455)
Summary of the method: as §1

IRAK3 = IRAK3 (Homo sapiens, UniProt Q9Y616)
Summary of the method: as §1

JNK3 = JNK3 (Homo sapiens, UniProt P53779)
Summary of the method: as §1

MAP3K10 = MAP3K10 (Homo sapiens, UniProt Q02779)
Summary of the method: as §1

MAP4K1 = MAP4K1 (Homo sapiens, UniProt Q92918)
Summary of the method: as §1

MAP4K3 = MAP4K3 (Homo sapiens, UniProt Q8IVH8)
Summary of the method: as §1

MET = MET (Homo sapiens, UniProt P08581)
Summary of the method: as §1

MYLK2 = MYLK2 (Homo sapiens, UniProt Q9H1R3)
Summary of the method: as §1

NEK3 = NEK3 (Homo sapiens, UniProt P51956)
Chain of NEK3 (P51956 whole entry): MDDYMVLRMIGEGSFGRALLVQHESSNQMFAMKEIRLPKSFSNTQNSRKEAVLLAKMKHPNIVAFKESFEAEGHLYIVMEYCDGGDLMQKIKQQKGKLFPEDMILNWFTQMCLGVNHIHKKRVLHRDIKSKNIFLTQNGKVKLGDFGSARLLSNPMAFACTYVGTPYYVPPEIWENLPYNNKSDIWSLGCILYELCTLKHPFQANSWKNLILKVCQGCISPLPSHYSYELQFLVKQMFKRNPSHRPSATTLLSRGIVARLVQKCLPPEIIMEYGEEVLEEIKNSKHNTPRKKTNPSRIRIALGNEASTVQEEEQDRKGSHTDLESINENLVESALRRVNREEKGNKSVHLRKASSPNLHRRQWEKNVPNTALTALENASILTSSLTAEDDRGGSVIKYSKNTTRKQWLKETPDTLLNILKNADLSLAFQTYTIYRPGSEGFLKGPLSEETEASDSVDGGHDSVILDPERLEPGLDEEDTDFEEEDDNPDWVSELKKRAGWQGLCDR
Summary of the method: as §1

NEK5 = NEK5 (Homo sapiens, UniProt Q6P3R8)
Summary of the method: as §1

NLK = NLK (Homo sapiens, UniProt Q9UBE8)
Summary of the method: as §1

PRKCE = PRKCE (Homo sapiens, UniProt Q02156)
Summary of the method: as §1

RIOK2 = RIOK2 (Homo sapiens, UniProt Q9BVS4)
Chain of RIOK2 (Q9BVS4 whole entry): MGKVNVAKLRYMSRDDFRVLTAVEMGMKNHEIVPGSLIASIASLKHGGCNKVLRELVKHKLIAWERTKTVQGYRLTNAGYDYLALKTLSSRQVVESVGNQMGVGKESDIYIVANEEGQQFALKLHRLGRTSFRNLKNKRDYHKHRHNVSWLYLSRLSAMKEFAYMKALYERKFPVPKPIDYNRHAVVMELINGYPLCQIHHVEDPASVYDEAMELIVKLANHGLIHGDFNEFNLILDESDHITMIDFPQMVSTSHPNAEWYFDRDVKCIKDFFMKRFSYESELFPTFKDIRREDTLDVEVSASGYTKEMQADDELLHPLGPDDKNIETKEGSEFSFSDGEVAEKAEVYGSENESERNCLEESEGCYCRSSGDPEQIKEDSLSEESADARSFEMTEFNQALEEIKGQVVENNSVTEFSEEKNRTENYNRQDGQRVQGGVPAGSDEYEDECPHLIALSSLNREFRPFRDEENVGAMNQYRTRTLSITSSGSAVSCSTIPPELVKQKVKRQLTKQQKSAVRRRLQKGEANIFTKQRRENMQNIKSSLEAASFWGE
Summary of the method: as §1

SBK3 = SBK3 (Homo sapiens, UniProt P0C264)
Chain of SBK3 (P0C264 whole entry): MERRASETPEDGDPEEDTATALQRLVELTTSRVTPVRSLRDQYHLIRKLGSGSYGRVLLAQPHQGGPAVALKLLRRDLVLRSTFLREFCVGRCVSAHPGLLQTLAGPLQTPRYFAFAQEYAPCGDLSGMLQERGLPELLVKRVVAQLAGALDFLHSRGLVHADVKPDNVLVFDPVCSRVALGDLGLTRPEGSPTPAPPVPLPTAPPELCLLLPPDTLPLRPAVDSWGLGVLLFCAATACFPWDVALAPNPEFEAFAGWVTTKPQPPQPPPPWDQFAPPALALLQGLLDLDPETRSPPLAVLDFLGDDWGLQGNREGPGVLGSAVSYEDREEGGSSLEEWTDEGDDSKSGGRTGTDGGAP
Summary of the method: as §1

SIK3 FL = SIK3 FL (Homo sapiens, UniProt Q9Y2K2)
Chain of SIK3 FL (Q9Y2K2 whole entry): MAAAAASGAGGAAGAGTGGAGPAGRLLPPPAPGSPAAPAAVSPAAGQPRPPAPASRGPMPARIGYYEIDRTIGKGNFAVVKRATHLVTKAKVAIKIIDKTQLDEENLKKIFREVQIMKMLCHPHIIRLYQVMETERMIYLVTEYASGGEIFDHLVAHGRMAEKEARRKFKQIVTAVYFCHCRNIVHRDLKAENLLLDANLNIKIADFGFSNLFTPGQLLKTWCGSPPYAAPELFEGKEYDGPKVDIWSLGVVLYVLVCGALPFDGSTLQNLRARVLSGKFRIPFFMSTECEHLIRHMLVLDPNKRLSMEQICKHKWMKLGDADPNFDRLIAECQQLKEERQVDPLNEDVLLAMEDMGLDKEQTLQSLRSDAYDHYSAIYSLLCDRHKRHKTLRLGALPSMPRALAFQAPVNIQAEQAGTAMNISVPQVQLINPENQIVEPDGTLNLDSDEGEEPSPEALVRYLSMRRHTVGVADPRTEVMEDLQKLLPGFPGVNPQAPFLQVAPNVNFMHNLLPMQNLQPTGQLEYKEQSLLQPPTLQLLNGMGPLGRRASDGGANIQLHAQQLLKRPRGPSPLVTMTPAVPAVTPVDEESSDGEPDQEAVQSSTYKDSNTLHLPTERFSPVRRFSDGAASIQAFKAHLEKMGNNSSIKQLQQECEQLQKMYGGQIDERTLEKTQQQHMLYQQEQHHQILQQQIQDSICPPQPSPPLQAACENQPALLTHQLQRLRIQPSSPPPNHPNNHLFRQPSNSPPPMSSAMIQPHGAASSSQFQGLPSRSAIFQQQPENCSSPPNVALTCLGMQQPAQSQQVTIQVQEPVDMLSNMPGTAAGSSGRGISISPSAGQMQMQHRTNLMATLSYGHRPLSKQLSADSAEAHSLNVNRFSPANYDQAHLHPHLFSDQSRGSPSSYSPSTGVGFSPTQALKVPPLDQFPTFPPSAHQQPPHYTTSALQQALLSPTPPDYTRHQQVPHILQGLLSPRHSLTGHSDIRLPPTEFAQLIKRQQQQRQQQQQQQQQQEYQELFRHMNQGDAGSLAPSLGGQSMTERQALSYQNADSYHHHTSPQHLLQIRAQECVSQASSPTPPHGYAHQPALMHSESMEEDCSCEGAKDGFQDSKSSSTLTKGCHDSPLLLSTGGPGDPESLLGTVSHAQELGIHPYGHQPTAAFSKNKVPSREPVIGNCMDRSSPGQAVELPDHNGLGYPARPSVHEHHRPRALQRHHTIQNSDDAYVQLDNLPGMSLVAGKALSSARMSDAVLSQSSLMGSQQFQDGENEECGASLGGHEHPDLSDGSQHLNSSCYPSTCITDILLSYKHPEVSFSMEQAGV
Summary of the method: as §1

SNF1LK2 = SNF1LK2 (Homo sapiens, UniProt Q9H0K1)
Summary of the method: as §1

STK17B = STK17B (Homo sapiens, UniProt O94768)
Summary of the method: as §1

STK32B = STK32B (Homo sapiens, UniProt Q9NY57)
Summary of the method: as §1

STK38L = STK38L (Homo sapiens, UniProt Q9Y2H1)
Summary of the method: as §1

TEC = TEC (Homo sapiens, UniProt P42680)
Summary of the method: as §1

TNK1 = TNK1 (Homo sapiens, UniProt Q13470)
Summary of the method: as §1

TNK2(iso1) = TNK2(iso1) (Homo sapiens, UniProt Q07912)
Summary of the method: as §1

Chain of AAK1 (Q2M2I8 whole entry): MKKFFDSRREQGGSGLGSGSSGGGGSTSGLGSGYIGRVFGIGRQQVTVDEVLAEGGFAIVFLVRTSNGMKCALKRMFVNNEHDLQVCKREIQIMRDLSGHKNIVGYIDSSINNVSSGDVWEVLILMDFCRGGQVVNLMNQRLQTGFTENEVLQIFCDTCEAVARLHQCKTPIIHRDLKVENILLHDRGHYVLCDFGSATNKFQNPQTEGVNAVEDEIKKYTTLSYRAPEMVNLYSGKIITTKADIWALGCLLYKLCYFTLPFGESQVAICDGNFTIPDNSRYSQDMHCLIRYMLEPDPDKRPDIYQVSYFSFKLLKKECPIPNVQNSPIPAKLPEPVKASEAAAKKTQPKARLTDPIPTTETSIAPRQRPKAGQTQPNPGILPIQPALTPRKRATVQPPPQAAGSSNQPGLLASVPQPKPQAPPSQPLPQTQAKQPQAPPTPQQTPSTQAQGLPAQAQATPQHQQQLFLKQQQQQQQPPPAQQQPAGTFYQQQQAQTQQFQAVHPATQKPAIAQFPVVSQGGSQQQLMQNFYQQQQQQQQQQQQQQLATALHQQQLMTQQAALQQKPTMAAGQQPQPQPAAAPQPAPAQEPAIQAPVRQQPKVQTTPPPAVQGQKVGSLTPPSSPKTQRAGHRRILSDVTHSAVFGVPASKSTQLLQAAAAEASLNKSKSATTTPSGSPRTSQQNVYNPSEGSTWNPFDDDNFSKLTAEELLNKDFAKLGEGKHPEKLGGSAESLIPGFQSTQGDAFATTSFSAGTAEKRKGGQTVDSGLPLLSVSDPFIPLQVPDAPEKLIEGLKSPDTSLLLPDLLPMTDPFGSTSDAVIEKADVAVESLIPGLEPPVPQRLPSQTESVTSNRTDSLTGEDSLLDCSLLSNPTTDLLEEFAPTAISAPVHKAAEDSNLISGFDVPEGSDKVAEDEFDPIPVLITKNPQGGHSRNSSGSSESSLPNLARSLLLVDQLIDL

CN1C(=O)[C@@H](N2CCc3c(nn(Cc4ccccc4)c3C(N)=O)C2=O)COc2cc(Cl)ccc21 [Compound 10, (S)-2-benzyl-6-(8-chloro-5-methyl-4-oxo-2,3,4,5-tetrahydrobenzo[b][1,4]oxazepin-3-yl)-7-oxo-4,5,6,7-tetrahydro-2H-pyrazolo[3,4-c]pyridine-3-carboxamide]
receptor occupancy at 1 µM (AAK1): 0.814%
receptor occupancy at 1 µM (ABL2): 6.33%
receptor occupancy at 1 µM (AKT2): -1.95%
receptor occupancy at 1 µM (BTK): -8.22%
receptor occupancy at 1 µM (CAMK2A): -6.57%
receptor occupancy at 1 µM (CDK2): 6.33%
receptor occupancy at 1 µM (CDK3): -5.32%
receptor occupancy at 1 µM (CDK6): -16.9%
receptor occupancy at 1 µM (CDKL1): 12.6%
receptor occupancy at 1 µM (CDKL5): 1.05%
receptor occupancy at 1 µM (CSNK2A2): 1.08%
receptor occupancy at 1 µM (ERN2): -5.4%
receptor occupancy at 1 µM (FER): 15.8%
receptor occupancy at 1 µM (FES): 3.15%
receptor occupancy at 1 µM (FGFR4): 5%
receptor occupancy at 1 µM (IRAK3): -5.37%
receptor occupancy at 1 µM (JNK3): 3.53%
receptor occupancy at 1 µM (MAP3K10): 3.06%
receptor occupancy at 1 µM (MAP4K1): 3.49%
receptor occupancy at 1 µM (MAP4K3): -3.75%
receptor occupancy at 1 µM (MET): 4.93%
receptor occupancy at 1 µM (MYLK2): 4.26%
receptor occupancy at 1 µM (NEK3): -12%
receptor occupancy at 1 µM (NEK5): -1.37%
receptor occupancy at 1 µM (NLK): 5.94%
receptor occupancy at 1 µM (PRKCE): 3.9%
receptor occupancy at 1 µM (RIOK2): -2.88%
receptor occupancy at 1 µM (SBK3): -4.46%
receptor occupancy at 1 µM (SIK3 FL): -5.87%
receptor occupancy at 1 µM (SNF1LK2): 4.84%
receptor occupancy at 1 µM (STK17B): 8%
receptor occupancy at 1 µM (STK32B): -4.21%
receptor occupancy at 1 µM (STK38L): 7.45%
receptor occupancy at 1 µM (TEC): -0.614%
receptor occupancy at 1 µM (TNK1): -2.13%
receptor occupancy at 1 µM (TNK2(iso1)): 4.21%
